In this experiment the test system is CD2F1 mice, L1210 leukemia ip, survival T/C. The experiment in a line: NCI In Vivo Anticancer Drug Screen. Data for tumor model L1210 Leukemia (intraperitoneal) in CD2F1 (CDF1) mice. The settings on record: higher = longer survival. The method in brief: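 Read-out first: treated-group measurement over vehicle-control measurement, expressed as a ratio. Animals bore a transplanted tumor line and were dosed with compound or vehicle.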

Where [1] appears, read: endpoint: mean survival time, dose: 100.0 mg/kg/injection, schedule: Q01DX001 (ip), vehicle: saline.
[2] abbreviates: endpoint: mean survival time, dose: 200.0 mg/kg/injection, schedule: Q01DX001 (ip), vehicle: saline.
The mark [3] stands for this setting: endpoint: mean survival time, dose: 200.0 mg/kg/injection, schedule: Q04DX003 (ip), vehicle: Klucel (hydroxypropylcellulose) (HPC).
Where [4] appears, read: endpoint: mean survival time, dose: 400.0 mg/kg/injection, schedule: Q01DX001 (ip), vehicle: saline.
Where [5] appears, read: endpoint: mean survival time, dose: 100.0 mg/kg/injection, schedule: Q01DX009 (ip), vehicle: saline with Tween-80.
The mark [6] stands for this setting: endpoint: mean survival time, dose: 200.0 mg/kg/injection, schedule: Q01DX009 (ip), vehicle: saline with Tween-80.
Setting [7] is: endpoint: mean survival time, dose: 100.0 mg/kg/injection, schedule: Q04DX002 (ip), vehicle: saline with Tween-80.
[8] abbreviates: endpoint: mean survival time, dose: 100.0 mg/kg/injection, schedule: Q04DX003 (ip), vehicle: saline with Tween-80.
[9] abbreviates: endpoint: mean survival time, dose: 200.0 mg/kg/injection, schedule: Q04DX002 (ip), vehicle: saline with Tween-80.
Where [10] appears, read: endpoint: mean survival time, dose: 200.0 mg/kg/injection, schedule: Q04DX003 (ip), vehicle: saline with Tween-80.
Setting [11] is: endpoint: mean survival time, dose: 400.0 mg/kg/injection, schedule: Q04DX002 (ip), vehicle: saline with Tween-80.
[12] abbreviates: endpoint: mean survival time, dose: 400.0 mg/kg/injection, schedule: Q04DX003 (ip), vehicle: saline with Tween-80.

The structures appear in SMILES notation. Several values for one entry are separate records, joined by “and”; a condition that tells them apart may be missing. Equal values may be shown once. Toxic doses and inconclusive results are not listed.

Regarding `OC(CBr)C(O)C(O)C(O)CBr` (centres undefined), the T/C was 109 % of control (endpoint: mean survival time, dose: 25.0 mg/kg/injection, schedule: Q01DX009 (oral), vehicle: other); 112 % of control (endpoint: mean survival time, dose: 50.0 mg/kg/injection, schedule: Q01DX009 (oral), vehicle: other); 103 % of control under setting [1]; 121 % of control (endpoint: mean survival time, dose: 100.0 mg/kg/injection, schedule: Q01DX009 (oral), vehicle: other); 101 % of control and 103 % of control (endpoint: mean survival time, dose: 100.0 mg/kg/injection, schedule: Q04DX003 (ip), vehicle: saline); 101 % of control under setting [2]. Besides, the T/C is, setting by setting: under setting [3], 120 % of control; (endpoint: mean survival time, dose: 200.0 mg/kg/injection, schedule: Q04DX003 (ip), vehicle: saline) 108 % of control; (endpoint: mean survival time, dose: 237.0 mg/kg/injection, schedule: Q04DX003 (ip), vehicle: saline with Tween-80) 94 % of control; (endpoint: mean survival time, dose: 355.55 mg/kg/injection, schedule: Q04DX003 (ip), vehicle: saline with Tween-80) 89 % of control; under setting [4], 106 % of control; (endpoint: mean survival time, dose: 400.0 mg/kg/injection, schedule: Q01DX009 (oral), vehicle: other) 113 % of control. Also, the T/C (endpoint: mean survival time, dose: 400.0 mg/kg/injection, schedule: Q04DX003 (ip), vehicle: saline) was 101 % of control and 108 % of control; the T/C (endpoint: mean survival time, dose: 533.33 mg/kg/injection, schedule: Q04DX003 (ip), vehicle: saline with Tween-80) was 99 % of control; the T/C (endpoint: mean survival time, dose: 800.0 mg/kg/injection, schedule: Q04DX003 (ip), vehicle: saline with Tween-80) is 94 % of control; the T/C (endpoint: mean survival time, dose: 800.0 mg/kg/injection, schedule: Q04DX003 (ip), vehicle: saline) was 116 % of control; the T/C (endpoint: mean survival time, dose: 1200.0 mg/kg/injection, schedule: Q04DX003 (ip), vehicle: saline with Tween-80) is 98 % of control; the T/C (endpoint: mean survival time, dose: 1200.0 mg/kg/injection, schedule: Q04DX003 (ip), vehicle: saline) is 114 % of control. Further, the T/C is 103 % of control (endpoint: median survival time, dose: 8.0 mg/kg/injection, schedule: Q03HX024 (ip), vehicle: Klucel (hydroxypropylcellulose) (HPC)); 108 % of control (endpoint: median survival time, dose: 16.0 mg/kg/injection, schedule: Q03HX008 (ip), vehicle: Klucel (hydroxypropylcellulose) (HPC)); 105 % of control (endpoint: median survival time, dose: 16.0 mg/kg/injection, schedule: Q03HX016 (ip), vehicle: Klucel (hydroxypropylcellulose) (HPC)); 106 % of control (endpoint: median survival time, dose: 16.0 mg/kg/injection, schedule: Q03HX024 (ip), vehicle: Klucel (hydroxypropylcellulose) (HPC)); 104 % of control (endpoint: median survival time, dose: 32.0 mg/kg/injection, schedule: Q01DX009 (ip), vehicle: Klucel (hydroxypropylcellulose) (HPC)); 115 % of control (endpoint: median survival time, dose: 32.0 mg/kg/injection, schedule: Q03HX008 (ip), vehicle: Klucel (hydroxypropylcellulose) (HPC)). Besides, the T/C runs as follows: (endpoint: median survival time, dose: 32.0 mg/kg/injection, schedule: Q03HX016 (ip), vehicle: Klucel (hydroxypropylcellulose) (HPC)) 103 % of control; (endpoint: median survival time, dose: 32.0 mg/kg/injection, schedule: Q03HX024 (ip), vehicle: Klucel (hydroxypropylcellulose) (HPC)) 109 % of control; (endpoint: median survival time, dose: 64.0 mg/kg/injection, schedule: Q01DX009 (ip), vehicle: Klucel (hydroxypropylcellulose) (HPC)) 105 % of control; (endpoint: median survival time, dose: 64.0 mg/kg/injection, schedule: Q04DX003 (ip), vehicle: Klucel (hydroxypropylcellulose) (HPC)) 109 % of control; (endpoint: median survival time, dose: 120.0 mg/kg/injection, schedule: Q01DX005 (ip), vehicle: Klucel (hydroxypropylcellulose) (HPC)) 151 % of control and 159 % of control and 163 % of control; (endpoint: median survival time, dose: 128.0 mg/kg/injection, schedule: Q01DX001 (ip), vehicle: Klucel (hydroxypropylcellulose) (HPC)) 108 % of control. For the same molecule, the T/C reads like this: (endpoint: median survival time, dose: 128.0 mg/kg/injection, schedule: Q01DX009 (ip), vehicle: Klucel (hydroxypropylcellulose) (HPC)) 86 % of control; (endpoint: median survival time, dose: 128.0 mg/kg/injection, schedule: Q04DX003 (ip), vehicle: Klucel (hydroxypropylcellulose) (HPC)) 122 % of control; (endpoint: median survival time, dose: 128.0 mg/kg/injection, schedule: Q08DX002 (ip), vehicle: Klucel (hydroxypropylcellulose) (HPC)) 109 % of control; (endpoint: median survival time, dose: 180.0 mg/kg/injection, schedule: Q01DX005 (ip), vehicle: Klucel (hydroxypropylcellulose) (HPC)) 155 % of control and 162 % of control and 164 % of control; (endpoint: median survival time, dose: 200.0 mg/kg/injection, schedule: Q04DX003 (ip), vehicle: Klucel (hydroxypropylcellulose) (HPC)) 151 % of control; (endpoint: median survival time, dose: 256.0 mg/kg/injection, schedule: Q01DX001 (ip), vehicle: Klucel (hydroxypropylcellulose) (HPC)) 112 % of control. The T/C is, setting by setting: (endpoint: median survival time, dose: 256.0 mg/kg/injection, schedule: Q04DX003 (ip), vehicle: Klucel (hydroxypropylcellulose) (HPC)) 109 % of control; (endpoint: median survival time, dose: 256.0 mg/kg/injection, schedule: Q08DX002 (ip), vehicle: Klucel (hydroxypropylcellulose) (HPC)) 114 % of control; (endpoint: median survival time, dose: 270.0 mg/kg/injection, schedule: Q01DX005 (ip), vehicle: Klucel (hydroxypropylcellulose) (HPC)) 100 % of control; (endpoint: median survival time, dose: 300.0 mg/kg/injection, schedule: Q04DX003 (ip), vehicle: Klucel (hydroxypropylcellulose) (HPC)) 155 % of control and 184 % of control and 197 % of control; (endpoint: median survival time, dose: 400.0 mg/kg/injection, schedule: Q04DX003 (ip), vehicle: Klucel (hydroxypropylcellulose) (HPC)) 195 % of control; (endpoint: median survival time, dose: 512.0 mg/kg/injection, schedule: Q01DX001 (ip), vehicle: Klucel (hydroxypropylcellulose) (HPC)) 95 % of control. For the same molecule, the T/C is 112 % of control (endpoint: median survival time, dose: 512.0 mg/kg/injection, schedule: Q04DX003 (ip), vehicle: Klucel (hydroxypropylcellulose) (HPC)) and 122 % of control (endpoint: median survival time, dose: 512.0 mg/kg/injection, schedule: Q08DX002 (ip), vehicle: Klucel (hydroxypropylcellulose) (HPC)).
Turning to `N#CC(C(N)=O)C1CC(=O)Oc2ccccc21` (centres undefined), the T/C runs as follows: (endpoint: mean survival time, dose: 100.0 mg/kg/injection, schedule: Q04DX003 (ip), vehicle: Klucel (hydroxypropylcellulose) (HPC)) 91 % of control; under setting [3], 112 % of control.
Consider `COc1ccc2c(c1O)CNCC2O` (centres undefined), for which the T/C is 102 % of control under setting [1], 101 % of control under setting [2] and 101 % of control under setting [4].
`NNC(=O)c1cccc[n+]1[O-]`: the T/C by setting is: (endpoint: mean survival time, dose: 12.5 mg/kg/injection, schedule: Q01DX001 (ip), vehicle: water) 98 % of control; (endpoint: mean survival time, dose: 25.0 mg/kg/injection, schedule: Q01DX001 (ip), vehicle: water) 96 % of control; (endpoint: mean survival time, dose: 50.0 mg/kg/injection, schedule: Q01DX001 (ip), vehicle: water) 93 % of control; (endpoint: mean survival time, dose: 100.0 mg/kg/injection, schedule: Q01DX001 (ip), vehicle: water) 102 % of control.
In the case of `CC(C)c1ccc2c(c1)CC[C@H]1[C@](C)(C#N)CCC[C@]21C`, the T/C is 95 % of control under setting [5] and 94 % of control under setting [6].
`COc1cc2c3c(c1)-c1c(ccc(OC)c1OC)CC3N(CCCl)CC2` (centres undefined): the T/C runs as follows: (endpoint: mean survival time, dose: 25.0 mg/kg/injection, schedule: Q04DX003 (ip), vehicle: water) 98 % of control; (endpoint: mean survival time, dose: 50.0 mg/kg/injection, schedule: Q04DX003 (ip), vehicle: water) 105 % of control.
With `CC1(C)COC(CCc2ccccc2)=N1`, the T/C reads like this: under setting [7], 108 % of control; under setting [8], 104 % of control; under setting [9], 101 % of control; under setting [10], 93 % of control; under setting [11], 101 % of control; under setting [12], 86 % of control.
As for `CC(=O)NC1=CC(=O)C(C)=CC1=O`, the T/C (endpoint: mean survival time, dose: 5.0 mg/kg/injection, schedule: Q01DX001 (ip), vehicle: saline) is 98 % of control and the T/C (endpoint: mean survival time, dose: 10.0 mg/kg/injection, schedule: Q01DX001 (ip), vehicle: saline) is 98 % of control.
Consider `CN(C)C(=O)C(O)C1CCCCC1` (centres undefined), for which the T/C is 94 % of control under setting [7], 94 % of control under setting [9] and 94 % of control under setting [11].
`CC1(C)C2C(Br)C3OC(=O)C(C2C(=O)O)C31` (centres undefined): the T/C is, setting by setting: under setting [5], 96 % of control; under setting [8], 91 % of control; under setting [6], 96 % of control; under setting [10], 96 % of control; (endpoint: mean survival time, dose: 400.0 mg/kg/injection, schedule: Q01DX009 (ip), vehicle: saline with Tween-80) 93 % of control; under setting [12], 91 % of control.

For the origin of these results see PubChem BioAssay AID256 (DTP/NCI, 2004).
